We go through 25 molecules from US8771724B2, “Percutaneous absorption enhancer and transdermal preparation using the same” (TOA EIYO Ltd., priority 2008, dated 2014).

Counter-ions that a name gives are not always drawn. Like-named read-outs stand apart in the source and are kept apart here.

How the values of the data set were obtained: A permeation test was carried out based on the following procedure. First, an excised skin (Yucatan miniature swine or hairless mouse) was placed in a vertical diffusion cell in which temperature was kept at 37° C., and a receptor phase was filled with 7 mL of a phosphate-buffered saline (PBS, a pH of 7.5). The whole was left to stand still for one hour. […] Then, the test was started. […] Note that after each of the collections, an equivalent amount of PBS was supplemented into the receptor phase. Each PBS collected from the receptor phase was measured for a drug concentration by an HPLC method. […] Further, the slant of a permeation curve at the time when the permeation rate reached a steady state was used to calculate a skin permeation rate (μg/hr/cm^2).
An enhancing effect on drug permeation was evaluated for the case where a 1% isopropyl myristate solution was used as a control and for the case where 1% each of n-octyl-β-D-thioglucopyranoside and dioctyl sodium sulfosuccinate was added.

As for `CC(C)c1nc(N(C)S(C)(=O)=O)nc(-c2ccc(F)cc2)c1/C=C/[C@@H](O)C[C@@H](O)CC(=O)[O-].CC(C)c1nc(N(C)S(C)(=O)=O)nc(-c2ccc(F)cc2)c1/C=C/[C@@H](O)C[C@@H](O)CC(=O)[O-].[Ca+2]` [Rosuvastatin calcium, rosuvastatin calcium], the “Percutaneous absorption enhancing action (Example/Comparative Example), cumulative permeation amount for 24 hours” value came out at 46 times and the “Percutaneous absorption enhancing action (Example/Comparative Example), skin permeation rate” value is reported as 138 times.
With `N[C@@H](Cc1ccc(O)c(O)c1)C(=O)O` [Levodopa, levodopa], the “Percutaneous absorption enhancing action (Example/Comparative Example), cumulative permeation amount for 24 hours” value (hairless, mouse, 24 h, pH 7.5) came to 461 times. Moreover, the “Percutaneous absorption enhancing action (Example/Comparative Example), skin permeation rate” value (hairless, mouse, pH 7.5) is recorded as 289 times.
For `CCOC(=O)[C@H](CCc1ccccc1)N[C@@H](C)C(=O)N(CC(=O)O)C1Cc2ccccc2C1` [Delapril hydrochloride, delapril hydrochloride], in that order: 42 times and 26 times.
For `CN(Cc1cnc2nc(N)nc(N)c2n1)c1ccc(C(=O)N[C@@H](CCC(=O)O)C(=O)O)cc1` [Methotrexate, methotrexate], in that order: 250 times and 180 times.
In the same order, the values of `COc1ccccc1N1CCN(CCCNc2cc(=O)n(C)c(=O)n2C)CC1` [Urapidil, urapidil] are 20 times and 18 times.
On to `N[C@@H](C(=O)N[C@@H]1C(=O)N2C(C(=O)O)=C(Cl)CS[C@H]12)c1ccccc1` [Cefaclor, cefaclor], for which the “Percutaneous absorption enhancing action (Example/Comparative Example), cumulative permeation amount for 24 hours” value (hairless, mouse, 24 h, pH 7.5) worked out at 420 times. Also, the “Percutaneous absorption enhancing action (Example/Comparative Example), skin permeation rate” value (hairless, mouse, pH 7.5) is 962 times.
Consider `CC(C)n1c(/C=C/C(O)CC(O)CC(=O)O)c(-c2ccc(F)cc2)c2ccccc21` (centres unmarked) [Fluvastatin sodium, fluvastatin sodium], for which the “Percutaneous absorption enhancing action (Example/Comparative Example), cumulative permeation amount for 24 hours” value (hairless, mouse, 24 h, pH 7.5) was 28 times. Further, the “Percutaneous absorption enhancing action (Example/Comparative Example), skin permeation rate” value (hairless, mouse, pH 7.5) came to 54 times.
For `C[C@]1(Cn2ccnn2)[C@H](C(=O)O)N2C(=O)C[C@H]2S1(=O)=O` [Tazobactam, tazobactam], in that order: 6 times and 21 times.
Regarding `CCOc1nc2cccc(C(=O)O)c2n1Cc1ccc(-c2ccccc2-c2nnn[nH]2)cc1` [Candesartan, candesartan], the “Percutaneous absorption enhancing action (Example/Comparative Example), cumulative permeation amount for 24 hours” value (hairless, mouse, 24 h, pH 7.5) was found to be 15 times. Moreover, for the setting “hairless, mouse, pH 7.5”, the “Percutaneous absorption enhancing action (Example/Comparative Example), skin permeation rate” value came out at 183 times.
Turning to `CC(=O)N[C@H]1[C@H]([C@H](O)[C@H](O)CO)OC(C(=O)O)=C[C@@H]1N=C(N)N` [Zanamivir hydrate, zanamivir hydrate], under “hairless, mouse, 24 h, pH 7.5”, the “Percutaneous absorption enhancing action (Example/Comparative Example), cumulative permeation amount for 24 hours” value stood at 47 times. Moreover, for the setting “hairless, mouse, pH 7.5”, the “Percutaneous absorption enhancing action (Example/Comparative Example), skin permeation rate” value worked out at 92 times.
For `CCCc1nc(C(C)(C)O)c(C(=O)OCc2oc(=O)oc2C)n1Cc1ccc(-c2ccccc2-c2nnn[nH]2)cc1` [Olmesartan medoxomil, olmesartan medoxomil], in that order: 75 times and 94 times.
For `COc1cc(N)cn[n+]1-c1ccccc1` [Amezinium metilsulfate, amezinium metilsulfate], in that order: 7 times and 24 times.
In the same order, the values of `CNC[C@H](O)c1cccc(O)c1` [Phenylephrine hydrochloride, phenylephrine hydrochloride] are 4 times and 8 times.
In the case of `CCOc1cc(CC(=O)N[C@@H](CC(C)C)c2ccccc2N2CCCCC2)ccc1C(=O)O` [Repaglinide, repaglinide], the “Percutaneous absorption enhancing action (Example/Comparative Example), cumulative permeation amount for 24 hours” value (hairless, mouse, 24 h, pH 7.5) was 27 times. For the setting “hairless, mouse, pH 7.5”, the “Percutaneous absorption enhancing action (Example/Comparative Example), skin permeation rate” value is recorded as 33 times.
In the same order, the values of `CCC[C@H](N[C@@H](C)C(=O)N1[C@H](C(=O)O)C[C@@H]2CCCC[C@@H]21)C(=O)OCC` [Perindopril erbumine, perindopril erbumine] are 3 times and 12 times.
For `CCOC(=O)[C@H](CCc1ccccc1)N[C@@H](C)C(=O)N1C(=O)N(C)C[C@H]1C(=O)O` [Imidapril hydrochloride, imidapril hydrochloride], in that order: 12 times and 40 times.
As for `CCOC(=O)[C@H](CCc1ccccc1)N[C@@H](C)C(=O)N1CCC[C@H]1C(=O)O` [Enalapril maleate, enalapril maleate], under “hairless, mouse, 24 h, pH 7.5”, the “Percutaneous absorption enhancing action (Example/Comparative Example), cumulative permeation amount for 24 hours” value came out at 4 times. Moreover, the “Percutaneous absorption enhancing action (Example/Comparative Example), skin permeation rate” value (hairless, mouse, pH 7.5) came out at 44 times.
In the same order, the values of `NS(=O)(=O)c1cc(C(=O)O)cc(N2CCCC2)c1Oc1ccccc1` [Piretanide, piretanide] are 34 times and 51 times.
Regarding `CCOC(=O)[C@H](CCc1ccccc1)N[C@H]1CS[C@H](c2cccs2)CN(CC(=O)O)C1=O` [Temocapril hydrochloride, temocapril hydrochloride], the “Percutaneous absorption enhancing action (Example/Comparative Example), cumulative permeation amount for 24 hours” value (hairless, mouse, 24 h, pH 7.5) was determined as 27 times. In addition, the “Percutaneous absorption enhancing action (Example/Comparative Example), skin permeation rate” value (hairless, mouse, pH 7.5) stood at 46 times.
For `CCOC(=O)[C@H](CCc1ccccc1)N[C@H]1CCCN2CCC[C@@H](C(=O)O)N2C1=O` [Cilazapril, cilazapril], in that order: 13 times and 16 times.
Turning to `CC1(C)S[C@@H]2[C@H](NC(=O)[C@H](N)c3ccc(O)cc3)C(=O)N2[C@H]1C(=O)O` [Amoxicillin trihydrate, amoxicillin trihydrate], the “Percutaneous absorption enhancing action (Example/Comparative Example), cumulative permeation amount for 24 hours” value (hairless, mouse, 24 h, pH 7.5) turned out to be 234 times. Where the note is “hairless, mouse, pH 7.5”, the “Percutaneous absorption enhancing action (Example/Comparative Example), skin permeation rate” value is given as 254 times.
For `NNc1nncc2ccccc12` [Hydralazine hydrochloride, hydralazine hydrochloride], in that order: 344 times and 1,411 times.
For `Cc1cccc(Nc2ccncc2S(=O)(=O)NC(=O)NC(C)C)c1` [Torasemide, torasemide], in that order: 29 times and 40 times.
In the same order, the values of `CCCCC(=O)N(Cc1ccc(-c2ccccc2-c2nnn[nH]2)cc1)[C@H](C(=O)O)C(C)C` [Valsartan, valsartan] are 4 times and 12 times.
With `CCOC(=O)[C@H](CCc1ccccc1)N[C@@H](C)C(=O)N1[C@H](C(=O)O)C[C@@H]2CCC[C@@H]21` [Ramipril, ramipril], the “Percutaneous absorption enhancing action (Example/Comparative Example), cumulative permeation amount for 24 hours” value (hairless, mouse, 24 h, pH 7.5) came to 5 times. For the setting “hairless, mouse, pH 7.5”, the “Percutaneous absorption enhancing action (Example/Comparative Example), skin permeation rate” value came out at 8 times.
